Laboratory results reported in US11787799B2 (priority 2015, dated 2023).
Where two headings read alike, the source gives them in different places.

Legend:
Coxsackievirus B3-H3 = assay: microbe, parasite or virus in culture; assay type: cell-based; settings: read-out: EC50 CVB3-H3
Poliovirus 1 = assay: microbe, parasite or virus in culture; assay type: cell-based; settings: read-out: EC50 PV1
Poliovirus 3 = assay: microbe, parasite or virus in culture; assay type: cell-based; settings: read-out: EC50 PV3
Coxsackievirus B1 = assay: microbe, parasite or virus in culture; assay type: cell-based; settings: read-out: EC50 CVB1
Coxsackievirus B2 = assay: microbe, parasite or virus in culture; assay type: cell-based; settings: read-out: EC50 CVB2
Coxsackievirus B4 = assay: microbe, parasite or virus in culture; assay type: cell-based; settings: read-out: EC50 CVB4
Coxsackievirus B5 = assay: microbe, parasite or virus in culture; assay type: cell-based; settings: read-out: EC50 CVB5
Enterovirus 71 = assay: microbe, parasite or virus in culture; assay type: cell-based; settings: read-out: EC50 EV71
Coxsackievirus A9 = assay: microbe, parasite or virus in culture; assay type: cell-based; settings: read-out: EC50 COX A9
Echovirus 6 = assay: microbe, parasite or virus in culture; assay type: cell-based; settings: read-out: EC50 ECHO06
Echovirus 7 = assay: microbe, parasite or virus in culture; assay type: cell-based; settings: read-out: EC50 ECHO07
Echovirus 9 = assay: microbe, parasite or virus in culture; assay type: cell-based; settings: read-out: EC50 ECHO09
Echovirus 11 = assay: microbe, parasite or virus in culture; assay type: cell-based; settings: read-out: EC50 ECHO11
Echovirus 25 = assay: microbe, parasite or virus in culture; assay type: cell-based; settings: read-out: EC50 ECHO25
Echovirus 30 = assay: microbe, parasite or virus in culture; assay type: cell-based; settings: read-out: EC50 ECHO30
Enterovirus D68/Fermon = assay: Antiviral assay, Enterovirus D68 strain Fermon in RD cells; assay type: cell-based
[1] = system: Enterovirus D68/US/Mo/14-18949; assay: Antiviral assay, Enterovirus D68 strain US/Mo/14-18949 in RD cells; assay type: cell-based
[2] = system: Enterovirus D68/US/KY/14-18953; assay: Antiviral assay, Enterovirus D68 strain US/KY/14-18953 in RD cells; assay type: cell-based
Measles = assay: microbe, parasite or virus in culture; assay type: cell-based; settings: read-out: EC50 Measles
SARS Coronavirus = assay type: cell-based
Influenza A H1N1 = assay: microbe, parasite or virus in culture; assay type: cell-based; settings: read-out: EC50 Influenza A H1N1
[3] = system: RSV (resp syncitial virus); assay: microbe, parasite or virus in culture; assay type: cell-based; settings: read-out: EC50 RSV
Japanese Encephalitis = assay type: cell-based
Powassan = assay type: cell-based, Powassan virus
Yellow Fever Virus = assay: microbe, parasite or virus in culture; assay type: cell-based; settings: read-out: EC50 Yellow Fever Virus
Punta Toro virus = assay: microbe, parasite or virus in culture; assay type: cell-based; settings: read-out: EC50 Punta Toro virus
Rift Valley virus = assay: organism not typed; assay type: cell-based; settings: read-out: EC50 Rift Valley virus
Venezuelan Encephalitis = assay type: cell-based, Venezuelan encephalitis virus
Chikungunya = assay type: cell-based, chikungunya virus
Rabies = assay type: cell-based, rabies virus
BHK = settings: read-out: CC50 (Powassan test)
Vero = settings: read-out: CC50 (Yellow Fever Virus test)
BHK-21 = settings: read-out: CC50 (Rabies test)
[4] = read-out: CC50 (Rift Valley virus test), with Rift Valley virus MP-12 test
[5] = read-out: CC50 (SARS Coronavirus test), with SARS Coronavirus Urbani test

SMILES | EC50 (Coxsackievirus B3-H3) [nM] | EC50 (Poliovirus 1) [nM] | EC50 (Poliovirus 3) [nM] | EC50 (Coxsackievirus B1) [nM] | EC50 (Coxsackievirus B2) [nM] | EC50 (Coxsackievirus B4) [nM] | EC50 (Coxsackievirus B5) [nM] | EC50 (Enterovirus 71) [nM] | EC50 (Coxsackievirus A9) [nM] | EC50 (Echovirus 6) [nM] | EC50 (Echovirus 7) [nM] | EC50 (Echovirus 9) [nM] | EC50 (Echovirus 25) [nM] | EC50 (Echovirus 30) [nM] | EC50 (Enterovirus D68/Fermon) [nM] | EC50 [1] [nM] | EC50 [2] [nM] | EC50 (Measles) [nM] | EC50 (SARS Coronavirus) [nM] | EC50 (Influenza A H1N1) [nM] | further results
CC(C)n1ncc2c(C(=O)Nc3ccccc3F)cc(-c3cccs3)nc21 [JX-001] | 1400 ± 600 | 7000 | 7000 | 2400 ± 200 | 2800 ± 400 | 2300 | 2300 | 1800 ± 500 | 2600 ± 900 | 2300 ± 900 | 2400 | 2100 ± 1200 | 3000 | 1200 | 350 ± 50 | 330 ± 50 | 500 ± 170 | > 4000 | 3200 | > 100000 | EC50 (Echovirus 11): 1500 ± 400 nM; EC50 [3]: 3400 nM; EC50 (Japanese Encephalitis): > 14 nM; EC50 (Powassan): > 33000 nM; EC50 (Yellow Fever Virus): > 4800 nM; EC50 (Punta Toro virus): > 39000 nM; EC50 (Rift Valley virus): > 50000 nM; EC50 (Venezuelan Encephalitis): > 980 nM; EC50 (Chikungunya): 310 nM; EC50 (Rabies): > 100000 nM; CC50 (HeLa-RW cells): 12500 nM; CC50 (RD cells): 200000 nM; CC50 (Vero 76; [4]): 50000 nM; CC50 (Vero 76; [5]): 3300 nM; CC50 (MDCK): > 100000 nM; CC50 (MA-104): 4700 nM; CC50 (BHK): > 33000 nM; CC50 (Vero): 4800 nM; CC50 (BHK-21): > 100000 nM
CC(C)n1ncc2c(C(=O)Nc3ccc(F)cc3F)cc(-c3cccs3)nc21 [JX-008] | 1400 ± 500 | > 25000 | > 25000 | 2300 | 2800 ± 400 | 2300 | 2300 | 1600 ± 400 | 2300 ± 800 | 1900 ± 700 | 2400 | 1500 ± 1000 | 1500 | 800 | 330 ± 60 | 280 ± 80 | 400 ± 170 | 34000 | 68000 | 70000 | EC50 (Echovirus 11): 1400 ± 400 nM; EC50 [3]: > 100000 nM; EC50 (Japanese Encephalitis): > 440 nM; EC50 (Powassan): > 38000 nM; EC50 (Yellow Fever Virus): 45000 nM; EC50 (Punta Toro virus): 23000 nM; EC50 (Rift Valley virus): > 77000 nM; EC50 (Venezuelan Encephalitis): > 480 nM; EC50 (Chikungunya): > 660 nM; EC50 (Rabies): > 100000 nM; CC50 (HeLa-RW cells): > 200000 nM; CC50 (LLC cells): > 200000 nM; CC50 (RD cells): 100000 nM; CC50 (Vero 76; [4]): 77000 nM; CC50 (Vero 76; [5]): > 100000 nM; CC50 (MDCK): > 100000 nM; CC50 (MA-104): > 100000 nM; CC50 (BHK): 38000 nM; CC50 (Vero): 50000 nM; CC50 (BHK-21): > 100000 nM
CC(C)n1ncc2c(C(=O)Nc3ccc(F)cc3)cc(-c3cccs3)nc21 [JX-017] | 700 ± 200 | > 25000 | > 25000 | 900 ± 300 | 1000 ± 300 | 800 | 1000 ± 100 | 900 ± 300 | 900 ± 500 | 1000 ± 400 | 1300 ± 200 | 600 | 1200 | 500 | 330 ± 60 | 350 ± 60 | 500 ± 170 | 8900 | > 10000 | > 100000 | EC50 [3]: 69000 nM; EC50 (Japanese Encephalitis): > 430 nM; EC50 (Powassan): 32000 nM; EC50 (Yellow Fever Virus): > 9900 nM; EC50 (Punta Toro virus): 12000 nM; EC50 (Rift Valley virus): > 52000 nM; EC50 (Venezuelan Encephalitis): 320 nM; EC50 (Chikungunya): 290 nM; EC50 (Rabies): > 100000 nM; CC50 (HeLa-RW cells): > 200000 nM; CC50 (LLC cells): > 200000 nM; CC50 (RD cells): > 200000 nM; CC50 (Vero 76; [4]): 52000 nM; CC50 (Vero 76; [5]): 10000 nM; CC50 (MDCK): > 100000 nM; CC50 (MA-104): > 100000 nM; CC50 (BHK): 37000 nM; CC50 (Vero): 9900 nM; CC50 (BHK-21): > 100000 nM
